“And” between values parts separate entries of the source, which are not always exact repeats. Identical values can stand only once. Like-named read-outs stand apart in the source and are kept apart here. Non-standard residues stand in square brackets, D forms with d. Residues, ends and D or L forms follow the SMILES beside them. Cha = N[C@@H](CC1CCCCC1)C(=O)O
Columns and labels:
DR4w4 = DR4w4 (Homo sapiens, UniProt P01903+P01911, A100K/A169T/F76Y/I96L/K127E/L162R/M171V/N62H/P40V/Q125Y/R42H/S133A/S149N/S66Y/V115G/V209L/W38E); experiment: biochemical; settings: PADRE Class II Binding Affinities DR4w4, Table IX
DR2w2a = DR2w2a (Homo sapiens, UniProt P01903+Q30154); experiment: biochemical; settings: PADRE Class II Binding Affinities DR2w282, Table IX
DR7 = settings: read-out: PADRE Class II Binding Affinities DR7
DR5 = settings: read-out: PADRE Class II Binding Affinities DR5
DR1 = DR1 (Homo sapiens, UniProt P01903+P01911, A100R/D57E/F55L/F60I/F76Y/I96L/L162R/M171V/P40L/Q125E/R42F/V115G/Y59C); experiment: biochemical; settings: PADRE Class II Binding Affinities DR1, Table IX
human PBMC T cell lines = type: cell-based
DQ3.1 = settings: read-out: PADRE Class II Binding Affinities; Table VIII A

DR2w2a, sequence (P01903 26-254): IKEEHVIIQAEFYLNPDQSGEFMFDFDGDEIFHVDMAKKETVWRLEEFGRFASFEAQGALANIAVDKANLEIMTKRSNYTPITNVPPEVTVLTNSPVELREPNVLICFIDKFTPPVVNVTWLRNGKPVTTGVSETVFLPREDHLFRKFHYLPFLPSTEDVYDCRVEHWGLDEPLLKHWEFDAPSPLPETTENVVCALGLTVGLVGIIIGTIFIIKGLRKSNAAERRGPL
DR2w2a, sequence (Q30154 30-266): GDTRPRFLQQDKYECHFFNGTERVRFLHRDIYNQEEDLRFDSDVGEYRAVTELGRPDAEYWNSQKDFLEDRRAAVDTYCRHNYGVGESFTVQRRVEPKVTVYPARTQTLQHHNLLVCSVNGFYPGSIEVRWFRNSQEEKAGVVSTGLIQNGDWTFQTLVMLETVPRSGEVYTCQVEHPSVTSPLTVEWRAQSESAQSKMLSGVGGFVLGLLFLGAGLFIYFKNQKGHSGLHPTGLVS

SMILES: CC(C)C[C@H](NC(=O)[C@@H](NC(=O)[C@H](CC(N)=O)NC(=O)[C@H](C)NC(=O)[C@H](CCCNC(=N)N)NC(=O)[C@@H](NC(=O)[C@H](CC1CCCCC1)NC(=O)[C@H](CCCNC(=N)N)NC(=O)[C@@H](C)N)C(C)C)[C@@H](C)O)C(=O)N[C@@H](CCCCN)C(=O)N[C@@H](C)C(=O)N[C@@H](C)C(=O)N[C@H](C)C(N)=O [Peptide 965.06]
- IC50 (DR4w4): 1.3 nM
- IC50 (DR2w2a): 6.4 nM
- IC50 (DR7; Table IX): 73.5 nM
- IC50 (DR5; Table IX): 5.6 nM
- IC50 (DR1): 0.8 nM

SMILES: CC(C)C[C@H](NC(=O)[C@@H](NC(=O)[C@@H](NC(=O)[C@H](C)NC(=O)[C@H](Cc1c[nH]c2ccccc12)NC(=O)[C@@H](NC(=O)[C@H](CC1CCCCC1)NC(=O)[C@H](CCCCN)NC(=O)[C@@H](C)N)C(C)C)C(C)C)[C@@H](C)O)C(=O)N[C@@H](CCCCN)C(=O)N[C@@H](C)C(=O)N[C@@H](C)C(=O)N[C@H](C)C(N)=O [Peptide 965.042]
- IC50 (DR4w4): 1 nM
- IC50 (DR2w2a): 9.5 nM
- IC50 (DR1): 0.2 nM

SMILES: CC(C)C[C@H](NC(=O)[C@@H](NC(=O)[C@H](CC(N)=O)NC(=O)[C@H](C)NC(=O)[C@H](C)NC(=O)[C@@H](NC(=O)[C@H](CC1CCCCC1)NC(=O)[C@H](CCCCN)NC(=O)[C@@H](C)N)C(C)C)[C@@H](C)O)C(=O)N[C@@H](CCCCN)C(=O)N[C@@H](C)C(=O)N[C@@H](C)C(=O)N[C@H](C)C(N)=O [Peptide 965.081]
- IC50 (DR5; Table IX, listed as 965.082): 12.5 nM
- Donors with significant (>10,000 cpm) T cell response / donors tested, second stimulation (human PBMC T cell lines): 1/5
- Donors with significant (>10,000 cpm) T cell response / donors tested, third stimulation (human PBMC T cell lines): 2/5

SMILES: CC(C)C[C@H](NC(=O)[C@@H](NC(=O)[C@H](C)NC(=O)[C@H](C)NC(=O)[C@H](C)NC(=O)[C@H](C)NC(=O)[C@H](CC1CCCCC1)NC(=O)[C@H](C)NC(=O)[C@@H](C)N)[C@@H](C)O)C(=O)N[C@@H](CCCCN)C(=O)N[C@@H](C)C(=O)N[C@H](C(=O)N[C@H](C)C(N)=O)C(C)C [Peptide 906.49] (H-[dA]A[Cha]AAAATLKAV[dA]-NH2; N-terminus and C-terminus assumed)
- IC50 (DQ3.1): 14.6 nM
- IC50 (DR7; Table VIII A): 28.4 nM
- IC50 (DR5; Table VIII A): 4.5 nM

SMILES: CC(C)C[C@H](NC(=O)[C@@H](NC(=O)[C@H](C)NC(=O)[C@H](Cc1ccccc1)NC(=O)[C@H](C)NC(=O)[C@H](C)NC(=O)[C@H](CC1CCCCC1)NC(=O)[C@H](C)NC(=O)[C@@H](C)N)[C@@H](C)O)C(=O)N[C@@H](CCCCN)C(=O)N[C@@H](C)C(=O)N[C@@H](C)C(=O)N[C@H](C)C(N)=O [Peptide 906.22] (H-[dA]A[Cha]AAFATLKAA[dA]-NH2; N-terminus and C-terminus assumed)
- IC50 (DQ3.1): 1880 nM
- IC50 (DR7): 59.4 nM
- IC50 (DR5): 3.4 nM

SMILES: CC[C@H](C)[C@H](NC(=O)[C@H](CCCCN)NC(=O)[C@H](CC(C)C)NC(=O)[C@@H](NC(=O)[C@H](C)NC(=O)[C@H](C)NC(=O)[C@H](C)NC(=O)[C@H](C)NC(=O)[C@H](CC1CCCCC1)NC(=O)[C@H](C)NC(=O)[C@@H](C)N)[C@@H](C)O)C(=O)N[C@@H](C)C(=O)N[C@H](C)C(N)=O [Peptide 906.45] (H-[dA]A[Cha]AAAATLKIA[dA]-NH2; N-terminus and C-terminus assumed)
- IC50 (DQ3.1): 56.2 nM
- IC50 (DR7; Table VIII A): 25 nM
- IC50 (DR5; Table VIII A): 28.2 nM

SMILES: CC(C)C[C@H](NC(=O)[C@@H](NC(=O)[C@H](Cc1c[nH]c2ccccc12)NC(=O)[C@H](C)NC(=O)[C@H](CCCCN)NC(=O)[C@@H](NC(=O)[C@H](CC1CCCCC1)NC(=O)[C@H](CCCCN)NC(=O)[C@@H](C)N)C(C)C)[C@@H](C)O)C(=O)N[C@@H](CCCCN)C(=O)N[C@@H](C)C(=O)N[C@@H](C)C(=O)N[C@H](C)C(N)=O [Peptide 965.021]
- IC50 (DR2w2a): 5.7 nM and 9 nM
- IC50 (DR7; Table IX): 89.3 nM
- IC50 (DR7; Table IX, listed as 965.022): 338 nM
- IC50 (DR5; Table IX): 4.1 nM
- IC50 (DR5; Table IX, listed as 965.022): 1.1 nM
- IC50 (DR1): 0.8 nM and 0.7 nM

SMILES: C[C@H](NC(=O)[C@H](C)NC(=O)[C@H](C)NC(=O)[C@H](CC1CCCCC1)NC(=O)[C@H](C)NC(=O)[C@@H](C)N)C(=O)N[C@@H](C)C(=O)N[C@H](C(=O)N[C@@H](Cc1ccccc1)C(=O)N[C@@H](CCCCN)C(=O)N[C@@H](C)C(=O)N[C@@H](C)C(=O)N[C@H](C)C(N)=O)[C@@H](C)O [Peptide 906.33]
- IC50 (DQ3.1): 13.4 nM
- IC50 (DR7; Table VIII A): 43.1 nM
- IC50 (DR5; Table VIII A): 2.4 nM

SMILES: CC(C)C[C@H](NC(=O)[C@@H](NC(=O)[C@@H](NC(=O)[C@H](C)NC(=O)[C@H](C)NC(=O)[C@H](C)NC(=O)[C@H](CC1CCCCC1)NC(=O)[C@H](C)NC(=O)[C@@H](C)N)[C@@H](C)O)[C@@H](C)O)C(=O)N[C@@H](CCCCN)C(=O)N[C@@H](C)C(=O)N[C@@H](C)C(=O)N[C@H](C)C(N)=O [Peptide 906.28]
- IC50 (DQ3.1): 28.5 nM
- IC50 (DR7; Table VIII A): 69.4 nM
- IC50 (DR5; Table VIII A): 5 nM

SMILES: CC(C)C[C@H](NC(=O)[C@@H](NC(=O)[C@H](C)NC(=O)[C@H](C)NC(=O)[C@H](C)NC(=O)[C@@H](NC(=O)[C@H](CC1CCCCC1)NC(=O)[C@H](CCCCN)NC(=O)[C@@H](C)N)C(C)C)[C@@H](C)O)C(=O)N[C@@H](CCCCN)C(=O)N[C@@H](C)C(=O)N[C@@H](C)C(=O)N[C@H](C)C(N)=O [Peptide 965.16]
- Donors with significant (>10,000 cpm) T cell response / donors tested, second stimulation (human PBMC T cell lines): 0/5
- Donors with significant (>10,000 cpm) T cell response / donors tested, third stimulation (human PBMC T cell lines): 1/5

SMILES: CC(C)C[C@H](NC(=O)[C@@H](NC(=O)[C@H](CCCCN)NC(=O)[C@H](C)NC(=O)[C@H](C)NC(=O)[C@@H](NC(=O)[C@H](CC1CCCCC1)NC(=O)[C@H](CCCCN)NC(=O)[C@@H](C)N)C(C)C)[C@@H](C)O)C(=O)N[C@@H](CCCCN)C(=O)N[C@@H](C)C(=O)N[C@@H](C)C(=O)N[C@H](C)C(N)=O [Peptide 965.14]
- IC50 (DR5; Table IX): 34.5 nM
- Donors with significant (>10,000 cpm) T cell response / donors tested, second stimulation (human PBMC T cell lines): 1/5
- Donors with significant (>10,000 cpm) T cell response / donors tested, third stimulation (human PBMC T cell lines): 3/5

SMILES: CC(C)C[C@H](NC(=O)[C@@H](NC(=O)[C@H](Cc1c[nH]c2ccccc12)NC(=O)[C@H](C)NC(=O)[C@H](Cc1ccc(O)cc1)NC(=O)[C@@H](NC(=O)[C@H](CC1CCCCC1)NC(=O)[C@H](CCCCN)NC(=O)[C@@H](C)N)C(C)C)[C@@H](C)O)C(=O)N[C@@H](CCCCN)C(=O)N[C@@H](C)C(=O)N[C@@H](C)C(=O)N[C@H](C)C(N)=O [Peptide 965.051]
- IC50 (DR4w4): 0.3 nM and 0.8 nM
- IC50 (DR2w2a): 7.1 nM and 9 nM
- IC50 (DR7; Table IX, listed as 965.052): 25.5 nM
- IC50 (DR5; Table IX): 5.7 nM
- IC50 (DR5; Table IX, listed as 965.052): 6.9 nM
- IC50 (DR1): 0.5 nM and 0.7 nM

SMILES: C[C@H](NC(=O)[C@H](C)NC(=O)[C@H](C)NC(=O)[C@H](CC1CCCCC1)NC(=O)[C@H](C)NC(=O)[C@@H](C)N)C(=O)N[C@@H](C)C(=O)N[C@H](C(=O)N[C@@H](CCC(N)=O)C(=O)N[C@@H](CCCCN)C(=O)N[C@@H](C)C(=O)N[C@@H](C)C(=O)N[C@H](C)C(N)=O)[C@@H](C)O [Peptide 906.31]
- IC50 (DQ3.1): 52.6 nM
- IC50 (DR7; Table VIII A): 100 nM
- IC50 (DR5; Table VIII A): 11.8 nM

SMILES: CC(C)C[C@H](NC(=O)[C@@H](NC(=O)[C@H](Cc1ccc(O)cc1)NC(=O)[C@H](C)NC(=O)[C@H](Cc1c[nH]c2ccccc12)NC(=O)[C@@H](NC(=O)[C@H](CC1CCCCC1)NC(=O)[C@H](CCCCN)NC(=O)[C@@H](C)N)C(C)C)[C@@H](C)O)C(=O)N[C@@H](CCCCN)C(=O)N[C@@H](C)C(=O)N[C@@H](C)C(=O)N[C@H](C)C(N)=O [Peptide 965.041]
- IC50 (DR4w4): 0.5 nM
- IC50 (DR2w2a): 2.5 nM
- IC50 (DR5; Table IX): 4.7 nM
- IC50 (DR1): 0.5 nM

SMILES: CC(C)C[C@H](NC(=O)[C@@H](NC(=O)[C@H](CCCCN)NC(=O)[C@H](C)NC(=O)[C@H](C)NC(=O)[C@H](C)NC(=O)[C@H](CC1CCCCC1)NC(=O)[C@H](C)NC(=O)[C@@H](C)N)[C@@H](C)O)C(=O)N[C@@H](CCCCN)C(=O)N[C@@H](C)C(=O)N[C@@H](C)C(=O)N[C@H](C)C(N)=O [Peptide 906.23]
- IC50 (DQ3.1): 26.1 nM
- IC50 (DR7): 29.6 nM
- IC50 (DR5): 2.2 nM

SMILES: CSCC[C@H](NC(=O)[C@@H](NC(=O)[C@H](CC1CCCCC1)NC(=O)[C@H](CCCCN)NC(=O)[C@@H](C)NC(=O)[C@H](CO)NC(=O)[C@H](CO)NC(=O)[C@@H](N)CCCCN)C(C)C)C(=O)N[C@@H](C)C(=O)N[C@@H](C)C(=O)N[C@H](C(=O)N[C@@H](CC(C)C)C(=O)N[C@@H](CCCCN)C(=O)N[C@@H](C)C(=O)N[C@@H](C)C(=O)N[C@H](C)C(N)=O)[C@@H](C)O [Peptide 965.19]
- IC50 (DR2w2a): 23.5 nM

SMILES: CC(C)C[C@H](NC(=O)[C@@H](NC(=O)[C@@H](NC(=O)[C@H](C)NC(=O)[C@H](C)NC(=O)[C@H](C)NC(=O)[C@H](CC1CCCCC1)NC(=O)[C@H](C)NC(=O)[C@@H](C)N)C(C)C)[C@@H](C)O)C(=O)N[C@@H](CCCCN)C(=O)N[C@@H](C)C(=O)N[C@@H](C)C(=O)N[C@H](C)C(N)=O [Peptide 906.26] (H-[dA]A[Cha]AAAVTLKAA[dA]-NH2; N-terminus and C-terminus assumed)
- IC50 (DQ3.1): 27.9 nM
- IC50 (DR7; Table VIII A): 65.8 nM
- IC50 (DR5; Table VIII A): 3.9 nM

Source: patent US6413935B1, “Induction of immune response against desired determinants” (priority 1993, dated 2002)
